{"source": "patent US11207312B2", "about": "“Metallo-beta-lactamase inhibitors and methods of use thereof” (priority 2017, dated 2021)", "key": {"[1]": {"test_system": "Klebsiella pneumoniae expressing VIM-1 (IHMA599644)", "assay_type": "cell-based", "conditions": "with imipenem 1 μg/ml; 95% inhibition of bacterial growth", "method_in_brief": "(§1)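 Clinical MBL-producing strains were grown overnight at 35 °C on blood agar, suspended in saline, diluted 1:100 into 1.1× CAMHB and exposed to test compound with imipenem at 1 μg/ml. After 22–24 h at 35 °C, absorbance gave MITC95: lowest compound concentration inhibiting 95% of growth.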"}, "[2]": {"test_system": "Escherichia coli expressing NDM-1 (CLB30016)", "assay_type": "cell-based", "conditions": "with imipenem 1 μg/ml; 95% inhibition of bacterial growth", "method_in_brief": "as §1"}, "[3]": {"test_system": "Serratia marcescens expressing IMP-1 (CL5741)", "assay_type": "cell-based", "conditions": "with imipenem 1 μg/ml; 95% inhibition of bacterial growth", "method_in_brief": "as §1"}, "[4]": {"test_system": "P. aeruginosa MB9799 (efflux-, IMP-1 plasmid)", "assay_type": "cell-based, Pseudomonas aeruginosa", "conditions": "efflux − (MB9799) strain; imipenem at 2 μg/mL; in the presence of a class A, C, D serine β-lactamase inhibitor closely related to relebactam", "method_in_brief": "(§2)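 Isogenic P. aeruginosa PAO1 strains (efflux+ and multiple-efflux-pump-disrupted) carrying plasmid IMP-1, with inducible AmpC, tested by broth microdilution. Imipenem and/or ceftazidime fixed, usually at CLSI breakpoint, plus fixed class A/C β-lactamase inhibitor; titrated MBL inhibitor concentration restoring susceptibility recorded and compared between strains as efflux fold difference.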"}, "[5]": {"target": "IMP-1 (Serratia marcescens, UniProt P52699)", "sequence (P52699 whole entry, looked up, species assumed)": "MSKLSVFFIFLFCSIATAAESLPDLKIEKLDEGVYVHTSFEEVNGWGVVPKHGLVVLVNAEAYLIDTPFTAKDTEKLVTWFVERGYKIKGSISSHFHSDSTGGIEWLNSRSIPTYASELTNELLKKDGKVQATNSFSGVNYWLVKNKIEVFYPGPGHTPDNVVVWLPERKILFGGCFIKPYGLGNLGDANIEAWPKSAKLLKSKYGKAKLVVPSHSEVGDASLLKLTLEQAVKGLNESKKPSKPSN", "assay": "biochemical", "conditions": "CCF2-FA fluorescence assay, 2 hours at 25° C.; read-out: IMP1 IC50", "method_in_brief": "(§3)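 IC50s come from 4-parameter fits of inhibition versus inhibitor concentration, tested from 20 μM down to 0.00063 μM. Enzyme, CCF2-FA (1.25 μM) and inhibitor react 2 h at 25° C, pH 7, with 10 μM ZnSO4 and 0.005% Tween-20.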"}, "[6]": {"target": "VIM-1 (Pseudomonas aeruginosa (strain ATCC 15692 / DSM 22644 / CIP 104116 / JCM 14847 / LMG 12228 / 1C / PRS 101 / PAO1), UniProt A0A0F7KYQ8)", "assay": "biochemical", "conditions": "CCF2-FA fluorescence assay, 2 hours at 25° C.; read-out: VIM1 IC50", "method_in_brief": "as §3"}, "[7]": {"test_system": "P. aeruginosa MB9798 (efflux+, IMP-1 plasmid)", "conditions": "for MB9798 MITC95 P. aeruginosa uM Efflux WT: efflux + (MB9798) strain, imipenem at 2 μg/mL, in the presence of a class A, C, D serine β-lactamase inhibitor closely related to relebactam; for Efflux ratio: fold difference between efflux+ (MB9798) and efflux− (MB9799) strains", "method_in_brief": "as §2"}, "[8]": {"target": "NDM-1 (Klebsiella pneumoniae, UniProt C7C422)", "sequence (C7C422 whole entry, looked up, species assumed)": "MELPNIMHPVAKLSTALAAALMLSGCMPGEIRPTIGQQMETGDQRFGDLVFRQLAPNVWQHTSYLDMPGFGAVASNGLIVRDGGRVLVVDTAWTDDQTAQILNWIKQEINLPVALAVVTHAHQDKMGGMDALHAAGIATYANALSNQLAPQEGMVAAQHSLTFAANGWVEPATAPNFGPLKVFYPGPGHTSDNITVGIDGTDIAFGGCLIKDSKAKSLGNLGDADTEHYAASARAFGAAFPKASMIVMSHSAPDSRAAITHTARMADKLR", "assay": "biochemical", "assay_type": "biochemical", "conditions": "CCF2-FA fluorescence assay, 2 hours at 25° C.", "method_in_brief": "as §3"}, "[9]": {"target": "VIM-2 (Escherichia coli, UniProt Q5U7L7)", "assay": "biochemical", "conditions": "CCF2-FA fluorescence assay; read-out: VIM2 IC50"}}, "data": [{"smiles": "NS(=O)(=O)c1c(S(=O)(=O)N[C@@H]2CCNC2)ccc(N2CC(N3CCOCC3)C2)c1-c1nnn[nH]1", "note": "[Example 111, 4-(3-morpholin-4-ylazetidin-1-yl)-N1-[(3R)-pyrrolidin-3-yl]-3-(1H-tetrazol-5-yl)benzene-1,2-disulfonamide]", "values": [{"measurement": "IHMA599644 K. pneumoniae MITC95 VIM", "setting": "[1]", "result": 3.13, "unit": "µM"}, {"measurement": "CLB30016 E. coli MITC95 NDM", "setting": "[2]", "result": 0.78, "unit": "µM"}, {"measurement": "CL5741 S. marcescens MITC95 IMP", "setting": "[3]", "result": 1.56, "unit": "µM"}, {"measurement": "MB9799 MITC95 P. aeruginosa uM Efflux Mutant", "setting": "[4]", "result": 1.56, "unit": "µM"}, {"measurement": "IC50", "setting": "[5]", "result": 4.16, "unit": "nM"}, {"measurement": "IC50", "setting": "[6]", "result": 1.24, "unit": "nM"}, {"measurement": "MB9798 MITC95 P. aeruginosa uM Efflux WT", "setting": "[7]", "result": 12.50, "unit": "µM"}, {"measurement": "Efflux ratio", "setting": "[7]", "result": 8.00}, {"measurement": "IC50", "setting": "[8]", "result": 4.56, "unit": "nM"}, {"measurement": "IC50", "setting": "[9]", "result": 8.65, "unit": "nM"}]}, {"smiles": "NS(=O)(=O)c1c(S(=O)(=O)N[C@@H]2CCNC2)ccc(N2CC(N3CCCCC3)C2)c1-c1nnn[nH]1", "note": "[Example 112, 4-(3-piperidin-1-ylazetidin-1-yl)-N1-[(3R)-pyrrolidin-3-yl]-3-(1H-tetrazol-5-yl)benzene-1,2-disulfonamide]", "values": [{"measurement": "IHMA599644 K. pneumoniae MITC95 VIM", "setting": "[1]", "result": 3.13, "unit": "µM"}, {"measurement": "CLB30016 E. coli MITC95 NDM", "setting": "[2]", "result": 0.78, "unit": "µM"}, {"measurement": "CL5741 S. marcescens MITC95 IMP", "setting": "[3]", "result": 1.56, "unit": "µM"}, {"measurement": "MB9799 MITC95 P. aeruginosa uM Efflux Mutant", "setting": "[4]", "result": 1.56, "unit": "µM"}, {"measurement": "IC50", "setting": "[5]", "result": 15, "unit": "nM"}, {"measurement": "IC50", "setting": "[6]", "result": 2.9, "unit": "nM"}, {"measurement": "MB9798 MITC95 P. aeruginosa uM Efflux WT", "setting": "[7]", "result": 50.00, "unit": "µM"}, {"measurement": "Efflux ratio", "setting": "[7]", "result": 31.99}, {"measurement": "IC50", "setting": "[8]", "result": 8.98, "unit": "nM"}, {"measurement": "IC50", "setting": "[9]", "result": 16.6, "unit": "nM"}]}, {"smiles": "NS(=O)(=O)c1c(S(=O)(=O)N[C@@H]2CCNC2)ccc(N2CC3(CCNCC3)C2)c1-c1nnn[nH]1", "note": "[Example 113, 4-(2,7-diazaspiro[3.5]non-2-yl)-N1-[(3R)-pyrrolidin-3-yl]-3-(1H-tetrazol-5-yl)benzene-1,2-disulfonamide]", "values": [{"measurement": "IHMA599644 K. pneumoniae MITC95 VIM", "setting": "[1]", "result": 1.56, "unit": "µM"}, {"measurement": "CLB30016 E. coli MITC95 NDM", "setting": "[2]", "result": 0.78, "unit": "µM"}, {"measurement": "CL5741 S. marcescens MITC95 IMP", "setting": "[3]", "result": 1.56, "unit": "µM"}, {"measurement": "MB9799 MITC95 P. aeruginosa uM Efflux Mutant", "setting": "[4]", "result": 0.78, "unit": "µM"}, {"measurement": "IC50", "setting": "[5]", "result": 33.1, "unit": "nM"}, {"measurement": "IC50", "setting": "[6]", "result": 0.81, "unit": "nM"}, {"measurement": "MB9798 MITC95 P. aeruginosa uM Efflux WT", "setting": "[7]", "result": 6.25, "unit": "µM"}, {"measurement": "Efflux ratio", "setting": "[7]", "result": 8.00}, {"measurement": "IC50", "setting": "[8]", "result": 13.7, "unit": "nM"}, {"measurement": "IC50", "setting": "[9]", "result": 119, "unit": "nM"}]}, {"smiles": "CN(C)C1(C)CN(c2ccc(S(=O)(=O)N[C@@H]3CCNC3)c(S(N)(=O)=O)c2-c2nnn[nH]2)C1", "note": "[Example 114, 4-[3-(dimethylamino)-3-methylazetidin-1-yl]-N1-[(3R)-pyrrolidin-3-yl]-3-(1H-tetrazol-5-yl)benzene-1,2-disulfonamide]", "values": [{"measurement": "IHMA599644 K. pneumoniae MITC95 VIM", "setting": "[1]", "result": 3.13, "unit": "µM"}, {"measurement": "CLB30016 E. coli MITC95 NDM", "setting": "[2]", "result": 1.56, "unit": "µM"}, {"measurement": "CL5741 S. marcescens MITC95 IMP", "setting": "[3]", "result": 3.13, "unit": "µM"}, {"measurement": "MB9799 MITC95 P. aeruginosa uM Efflux Mutant", "setting": "[4]", "result": 3.13, "unit": "µM"}, {"measurement": "IC50", "setting": "[5]", "result": 50.5, "unit": "nM"}, {"measurement": "IC50", "setting": "[6]", "result": 1.24, "unit": "nM"}, {"measurement": "MB9798 MITC95 P. aeruginosa uM Efflux WT", "setting": "[7]", "result": 12.50, "unit": "µM"}, {"measurement": "Efflux ratio", "setting": "[7]", "result": 4.00}, {"measurement": "IC50", "setting": "[8]", "result": 12, "unit": "nM"}, {"measurement": "IC50", "setting": "[9]", "result": 4.27, "unit": "nM"}]}, {"smiles": "CN1CCOC2(C1)CN(c1ccc(S(=O)(=O)N[C@@H]3CCNC3)c(S(N)(=O)=O)c1-c1nnn[nH]1)C2", "note": "[Example 115, 4-(8-methyl-5-oxa-2,8-diazaspiro[3.5]non-2-yl)-N1-[(3R)-pyrrolidin-3-yl]-3-(1H-tetrazol-5-yl)benzene-1,2-disulfonamide]", "values": [{"measurement": "IHMA599644 K. pneumoniae MITC95 VIM", "setting": "[1]", "result": 3.13, "unit": "µM"}, {"measurement": "CLB30016 E. coli MITC95 NDM", "setting": "[2]", "result": 0.39, "unit": "µM"}, {"measurement": "CL5741 S. marcescens MITC95 IMP", "setting": "[3]", "result": 0.78, "unit": "µM"}, {"measurement": "MB9799 MITC95 P. aeruginosa uM Efflux Mutant", "setting": "[4]", "result": 0.78, "unit": "µM"}, {"measurement": "IC50", "setting": "[5]", "result": 6.06, "unit": "nM"}, {"measurement": "IC50", "setting": "[6]", "result": 2.1, "unit": "nM"}, {"measurement": "MB9798 MITC95 P. aeruginosa uM Efflux WT", "setting": "[7]", "result": 12.50, "unit": "µM"}, {"measurement": "Efflux ratio", "setting": "[7]", "result": 16.00}, {"measurement": "IC50", "setting": "[8]", "result": 6.14, "unit": "nM"}, {"measurement": "IC50", "setting": "[9]", "result": 19.2, "unit": "nM"}]}, {"smiles": "COC1(CN(C)C)CN(c2ccc(S(=O)(=O)N[C@@H]3CCNC3)c(S(N)(=O)=O)c2-c2nnn[nH]2)C1", "note": "[Example 116, 4-{3-[(dimethylamino)methyl]-3-methoxyazetidin-1-yl}-N1-[(3R)-pyrrolidin-3-yl]-3-(1H-tetrazol-5-yl)benzene-1,2-disulfonamide]", "values": [{"measurement": "IHMA599644 K. pneumoniae MITC95 VIM", "setting": "[1]", "result": 3.13, "unit": "µM"}, {"measurement": "CLB30016 E. coli MITC95 NDM", "setting": "[2]", "result": 1.56, "unit": "µM"}, {"measurement": "CL5741 S. marcescens MITC95 IMP", "setting": "[3]", "result": 1.56, "unit": "µM"}, {"measurement": "MB9799 MITC95 P. aeruginosa uM Efflux Mutant", "setting": "[4]", "result": 1.56, "unit": "µM"}, {"measurement": "IC50", "setting": "[5]", "result": 4.62, "unit": "nM"}, {"measurement": "IC50", "setting": "[6]", "result": 6.97, "unit": "nM"}, {"measurement": "MB9798 MITC95 P. aeruginosa uM Efflux WT", "setting": "[7]", "result": 3.13, "unit": "µM"}, {"measurement": "Efflux ratio", "setting": "[7]", "result": 2.00}, {"measurement": "IC50", "setting": "[8]", "result": 29.3, "unit": "nM"}, {"measurement": "IC50", "setting": "[9]", "result": 63.9, "unit": "nM"}]}]}
